In brackets after ≈: the same amount, converted by molar mass.
Key:
[1] = test system: Streptococcus pneumoniae; assay: Bacterial susceptibility testing in liquid media (Minimum Inhibitory Concentration); assay type: cell-based; conditions: against Streptococcus pneumoniae, 37 degrees C., 24 hrs, lowest concentration able to reduce growth by 80% or more
Protocol: Compounds were tested for antimicrobial activity by susceptibility testing in liquid media. Compounds were dissolved in dimethylsulfoxide and tested in 10 doubling dilutions in the susceptibility assays. The organisms used in the assay were grown overnight on suitable agar media and then suspended in a liquid medium appropriate for the growth of the organism. The suspension was a 0.5 McFarland and a further 1 in 10 dilution was made into the same liquid medium to prepare the final organism suspension in 100 μL. Plates were incubated under appropriate conditions at 37 degrees C. for 24 hrs prior to reading. The Minimum Inhibitory Concentration was determined as the lowest drug concentration able to reduce growth by 80% or more.

| SMILES | melting point [°C] | MIC [1] [µg/mL] |
| --- | --- | --- |
| Cc1[nH]c(C(=O)NC2CCN(c3cc(C(=O)O)nc4ccccc34)CC2)c(Cl)c1Cl [Example 225, 4-(4-{[(3,4-Dichloro-5-methyl-1H-pyrrol-2-yl)carbonyl]amino}piperidin-1-yl)quinoline-2-carboxylic acid] | 254 to 256 |  |
| Cc1[nH]c(C(=O)NC2CCN(c3nc(C#N)cs3)CC2)cc1Br [Example 130, 4-Bromo-N-[1-(4-cyano-1,3-thiazol-2-yl)piperidin-4-yl]-5-methyl-1H-pyrrole-2-carboxamide] |  | 2 (≈ 5.07 µM) |
| Cc1[nH]c(C(=O)NC2CCN(c3cc(C(=O)O)on3)CC2)c(Cl)c1Cl [Example 226, 3-(4-{[(3,4-Dichloro-5-methyl-1H-pyrrol-2-yl)carbonyl]amino}piperidin-1-yl)isoxazole-5-carboxylic acid] | 232 to 234 |  |

Source: patent publication US7709503B2, “Pyrrol derivatives with antibacterial activity” (AstraZeneca AB, priority 2003, dated 2010)
